# Measured values reported in paper PMC9965875 (Pharmaceutics, 2023).
# Read-outs that look alike come from different tables or passages of the source.
# Tests used:
# [1] = system: Leishmania (L.) infantum promastigotes (strain MHOM/MA/67/ITMAP-263); experiment: organism not typed; assay type: cell-based; conditions: read-out: Anti-Promastigote Activity (IC50)
# in vitro = conditions: BALB/c, mouse
SMILES,IC50 ([1]; 24 h) [µM],cytotoxicity at 10 µM (in vitro) [%],IC50 [1] [µM],other results
O=CNCNc1c2c(nc3ccccc13)CCCC2 [Compound 8.b],5.64 ± 0.65,88.1,–,–
Clc1c2c(nc3ccccc13)CCCC2 [Compound 5.a],> 100,–,–,–
c1ccc2c(NCCCCCCCCCCNc3c4c(nc5ccccc35)CCCC4)c3c(nc2c1)CCCC3 [Compound 10.f],0.94 ± 0.33,99.5,–,–
CC(=O)NCCCCCCNc1c2c(nc3ccccc13)CCCC2 [Compound 7.a],–,–,> 100,–
Clc1ccc2c(Cl)c3c(nc2c1)CCCC3 [Compound 5.b],> 100,–,–,–
CC(=O)NCCCCCCCCNc1c2c(nc3cc(Cl)ccc13)CCCC2 [Compound 7.e],> 100,–,–,–
Clc1ccc2c(NCCCCCCCCCCNc3c4c(nc5cc(Cl)ccc35)CCCC4)c3c(nc2c1)CCCC3 [Compound 10.m],–,99,1.92 ± 0.21,–
CC(=O)NCCCCCCCCNc1c2c(nc3ccccc13)CCCC2 [Compound 7.b],–,–,> 100,–
O=CNCCCNc1c2c(nc3ccccc13)CCCC2 [Compound 8.d],14.2 ± 0.98,–,–,cytotoxicity at 50 µM (in vitro): 100%
Clc1ccc2c(NCCCNc3c4c(nc5cc(Cl)ccc35)CCCC4)c3c(nc2c1)CCCC3 [Compound 10.i],–,90.4,8.58 ± 0.47,–
O=C1C(Cl)=C(NCCCNc2c3c(nc4cc(Cl)ccc24)CCCC3)C(=O)C(Cl)=C1NCCCNc1c2c(nc3cc(Cl)ccc13)CCCC2 [Compound 9.d],–,–,2.17 ± 0.45,–
O=C1C=C(NCCCNc2c3c(nc4cc(Cl)ccc24)CCCC3)C(=O)C=C1NCCCNc1c2c(nc3cc(Cl)ccc13)CCCC2 [Compound 9.c],–,–,> 50,–
O=CNCCNc1c2c(nc3ccccc13)CCCC2 [Compound 8.c],1.69 ± 0.22,99.5,–,–
CC(=O)NCCCCCCNc1c2c(nc3cc(Cl)ccc13)CCCC2 [Compound 7.d],–,–,> 100,–
"C[C@@H]1[C@H](O)[C@@H](C)/C=C/C=C/C=C/C=C/C=C/C=C/C=C/[C@H](O[C@@H]2O[C@H](C)[C@@H](O)[C@H](N)[C@@H]2O)C[C@@H]2O[C@](O)(C[C@@H](O)C[C@@H](O)[C@H](O)CC[C@@H](O)C[C@@H](O)CC(=O)O[C@H]1C)C[C@H](O)[C@H]2C(=O)O [Amphotericin B, reference compound]",0.17 ± 0.09,–,–,EC50 (in vitro): 3.1 ± 0.6 µM
"Clc1ccc2c(NCCCCCCCCCCCCNc3ccnc4cc(Cl)ccc34)ccnc2c1 [Compound 12, N^1,N^12-bis(7-chloroquinolin-4-yl)dodecane-1,12-diamine]",0.6 ± 0.11,–,–,EC50 (in vitro): 11.7 ± 3.96 µM
O=C1C(Cl)=C(NCCCNc2c3c(nc4ccccc24)CCCC3)C(=O)C(Cl)=C1NCCCNc1c2c(nc3ccccc13)CCCC2 [Compound 9.b],–,–,> 100,–
Clc1ccc2c(NCCNc3c4c(nc5cc(Cl)ccc35)CCCC4)c3c(nc2c1)CCCC3 [Compound 10.h],–,–,9.5 ± 0.51,melting point: 89 to 95 °C
O=CNCCCCCCNc1c2c(nc3ccccc13)CCCC2 [Compound 8.e],3.23 ± 0.41,94.7,–,–
Clc1ccc2c(NCCCCCCCCCCCCNc3c4c(nc5cc(Cl)ccc35)CCCC4)c3c(nc2c1)CCCC3 [Compound 10.n],–,–,3.5 ± 0.63,cytotoxicity at 50 µM (in vitro): 92.5%
c1ccc2c(NCCCCCCCCNc3c4c(nc5ccccc35)CCCC4)c3c(nc2c1)CCCC3 [Compound 10.e],2.99 ± 0.98,99.5,–,–
Clc1ccc2c(NCCCCNc3c4c(nc5cc(Cl)ccc35)CCCC4)c3c(nc2c1)CCCC3 [Compound 10.j],–,–,8.56 ± 1.56,EC50 (in vitro): 9.02 ± 1.79 µM
CC(=O)NCCCCCCCCCCNc1c2c(nc3cc(Cl)ccc13)CCCC2 [Compound 7.f],11.2 ± 0.66,77.5,–,–
O=CNCCCCCCCCNc1c2c(nc3ccccc13)CCCC2 [Compound 8.f],1.55 ± 0.38,91.2,–,–
Clc1ccc2c(NCCCCCNc3c4c(nc5cc(Cl)ccc35)CCCC4)c3c(nc2c1)CCCC3 [Compound 10.k],–,87.5,5.26 ± 4.89,–
O=CNNc1c2c(nc3ccccc13)CCCC2 [Compound 8.a],> 50,–,–,–
c1ccc2c(NCCCCCCCCCCCCNc3c4c(nc5ccccc35)CCCC4)c3c(nc2c1)CCCC3 [Compound 10.g],0.37 ± 0.06,99.7,–,–
CC(=O)NCCCCCCCCCCNc1c2c(nc3ccccc13)CCCC2 [Compound 7.c],> 100,–,–,–
c1ccc2c(NCCCCCNc3c4c(nc5ccccc35)CCCC4)c3c(nc2c1)CCCC3 [Compound 10.d],> 50,–,–,–
